{"source": "patent US8334316B2", "about": "“Substituted organosulfur compounds and methods of using thereof” (ACEA Biosciences, Inc., priority 2004, dated 2012)", "key": {"[1]": {"tested_on": "purified bovine brain tubulin", "test": "In vitro microtubule assembly assay with pure (MAP-free) tubulin, light scattering OD400", "format": "biochemical", "description": "Microtubule Assembly Assays. Microtubule seeds were synthesized by incubating purified bovine brain tubulin with 1 mM GTP, 10% glycerol and 10% DMSO at 35° C. for 30 minutes, followed by shearing by passing the assembled microtubules 6 times through a 27 gauge needle. Microtubule assembly was assayed by adding 27.5 ul of microtubule seeds to spectrophotometer cuvettes (maintained at 35° C.) containing 247.5 ul purified bovine brain tubulin in a PEM-100 buffer (100 mM Pipes pH=6.8, 1 mM […], 1 mM MgSO4) supplemented with 1 mM GTP (and drug where applicable) and monitoring the OD400 for 2 hours. Since the compounds are dissolved in DMSO and DMSO can have a significant effect on microtubule assembly, DMSO was added to all cuvettes so as to equal the largest volume of drug added to reactions. It should be noted that the initial velocity of the microtubule assembly reactions is so fast that one can not always catch the initial rise on the light scattering profile because it is occurring while samples are being prepared. However, all samples start at the same optical density, since they are identical with the exception of the drug being introduced."}, "[2]": {"tested_on": "Bcap-37 human breast cancer", "test": "Bcap-37 human breast cancer xenograft in nude mice, dosing from 24 h after transplantation (Example 3)", "format": "in vivo", "settings": "for tumor inhibition rate %: vs solvent control", "excerpt": "Both male and female mice were used. […] Test control. […] Preparation and Administration of Test Compounds. […] For human tumor xenograft model, all used materials, including animal food, animal cage, supporting materials and apparatus contacted by animals, were high-pressure sterilized. Nude mice were maintained in laminar flow shelves under SPF condition. After tumor transplantation, mouse weight and tumor size in each compound dosage group were dynamically monitored and plotted."}, "[3]": {"tested_on": "Bcap-37 human breast cancer", "test": "Bcap-37 human breast cancer xenograft in nude mice, dosing from day 7 when tumors palpable (Example 5)", "format": "in vivo", "description": "Only female mice were used in this study. […] The high, middle and low doses of ACEA100108 were 50, […] and 8 mg/kg/d, respectively.\nPreparation and Administration of Test Compounds. […] Seven days after the tumor transplantation, the transplanted tumors grew to size sufficiently large that could be felt by hands when one touched the animal. […] The high, middle and low dose of ACEA100108 was 50, 20 and 8 mg/kg, respectively.\nAbout seven days after the transplantation, tumors in the mice grew sufficiently large so that tumor could be felt by hands when one touched the animals.\nFor the human breast cancer xenograft model, all used materials, including animal food, animal cage, supporting materials and apparatus contacted by animals, were high-pressure sterilized. Nude mice were maintained in laminar flow shelves under SPF condition. After tumor transplantation, mouse weight and tumor size in each compound dosage group were dynamically monitored and recorded. The tumors size was determined by measuring the major axis (a) and minor axis (b) of the tumor, and tumor volume was calculated according to the equation (3) in Example 3."}, "[4]": {"tested_on": "A549 human lung cancer cells", "test": "Apoptosis: Annexin V-Cy3 / 6-CFDA staining of A549 cells", "format": "cell-based", "settings": "50 nM, 24 hrs", "description": "The cells were incubated with the drugs for 24 hours and then washed 2× with PBS and 3× with binding buffer (10 mM HEPES, pH 7.5, 140 mM NaCl, 2.5 mM CaCl2). […] The cells were gently washed 3× in 1× binding buffer, mounted, viewed under immunofluorescent microscope and imaged using an attached CCD camera. Note that live cells show staining only with 6-CFDA (green), while necrotic cells will stain only with Annexin V-Cy3 (red). Cells starting the apoptotic process will stain both with AnnexinV-Cy3 and 6-CFDA."}, "[5]": {"tested_on": "ao10/17 human ovarian cancer", "test": "ao10/17 human ovarian cancer xenograft in nude mice (Example 4)", "format": "in vivo", "settings": "10 mg/kg iv x7 qd; 7 D after transplantation"}, "[6]": {"settings": "10 mg/kg iv x7 qd, 7 days after transplantation"}, "[7]": {"settings": "50 mg/kg iv x7 qd, 7 days after transplantation"}}, "note": "Where “and” joins values, the source holds several entries; their conditions need not be identical. Equal values may be shown once. Marks after values point to notes of the source that are not given here.", "data": [{"smiles": "Cc1cccc(CSSSCc2cccc(C)c2)c1", "note": "[ACEA100116, di(m-methylbenzyl)trisulfide]", "values": [{"measurement": "Effect on microtubule assembly", "setting": "[1]; 9 uM and 27 uM", "value": "promotes microtubule assembly"}]}, {"smiles": "CC(=O)O[C@H]1C(=O)[C@@]2(C)[C@H]([C@H](OC(=O)c3ccccc3)[C@]3(O)C[C@H](OC(=O)[C@H](O)[C@@H](NC(=O)c4ccccc4)c4ccccc4)C(C)=C1C3(C)C)[C@]1(OC(C)=O)CO[C@@H]1C[C@@H]2O", "note": "[Taxol, paclitaxel, reference compound]", "values": [{"measurement": "Mice with palpable tumor / total mice", "setting": "[2]; [6]", "value": "4/6††"}, {"measurement": "Tumor volume (cm^3)", "setting": "[2]; [6]", "value": 0.01, "unit": "cm^3"}, {"measurement": "Tumor volume (cm^3)", "setting": "[2]; 10 mg/kg iv x7 qd, 14 d", "value": "0.065 ± 0.02", "unit": "cm^3"}, {"measurement": "Tumor volume (cm^3)", "setting": "[2]; 10 mg/kg iv x7 qd, 21 d", "value": "0.249 ± 0.07", "unit": "cm^3"}, {"measurement": "Tumor volume (cm^3)", "setting": "[2]; 10 mg/kg iv x7 qd, 24 d (end)", "value": "0.685 cm^3 and 0.685 ± 0.14 cm^3"}, {"measurement": "TV inhibition rate % T/C", "setting": "[2]; 10 mg/kg/d iv x7 qd", "value": 39.05, "unit": "%"}, {"measurement": "Tumor weight", "setting": "[2]; 10 mg/kg/d iv x7 qd", "value": "0.88 ± 0.17", "unit": "g"}, {"measurement": "Body weight of mice", "setting": "[2]; 10 mg/kg/d iv x7 qd, 0 day (beginning)", "value": "18.1 g and 18.1 ± 1.1 g"}, {"measurement": "Body weight of mice", "setting": "[2]; 10 mg/kg/d iv x7 qd, 7 day", "value": "19.7 ± 1", "unit": "g"}, {"measurement": "tumor inhibition rate %", "setting": "[2]; 10 mg/kg/d iv x7 qd", "value": 48.84, "unit": "%"}, {"measurement": "Body weight of mice", "setting": "[3]; 10 mg/kg iv x7 qd, 0 d (beginning)", "value": "18.8 g and 18.8 ± 1 g"}, {"measurement": "Body weight of mice", "setting": "[3]; 10 mg/kg iv x7 qd, 7 d", "value": "20.5 ± 1", "unit": "g"}, {"measurement": "Mice with palpable tumor / total mice", "setting": "[3]; 10 mg/kg iv x7 qd, 7 d", "value": "6/6††"}, {"measurement": "Tumor volume (cm^3)", "setting": "[3]; 10 mg/kg iv x7 qd, 7 d after transplantation (start of dosing)", "value": 0.01, "unit": "cm^3"}, {"measurement": "Tumor volume (cm^3)", "setting": "[3]; 10 mg/kg iv x7 qd, 14 d", "value": "0.103 ± 0.02", "unit": "cm^3"}, {"measurement": "Tumor volume (cm^3)", "setting": "[3]; 10 mg/kg iv x7 qd, 21 d", "value": "0.283 ± 0.05", "unit": "cm^3"}, {"measurement": "Tumor volume (cm^3)", "setting": "[3]; 10 mg/kg iv x7 qd, 24 d", "value": "0.799 ± 0.23", "unit": "cm^3"}, {"measurement": "Tumor Volume Inhibition T/C %", "setting": "[3]; 10 mg/kg/d iv x7 qd", "value": 44.33, "unit": "%"}, {"measurement": "Tumor weight", "setting": "[3]; 10 mg/kg/d iv x7 qd", "value": "0.92 ± 0.07", "unit": "g"}, {"measurement": "Tumor Inhibition Rate C − T/C %", "setting": "[3]; 10 mg/kg/d iv x7 qd, based on tumor weight", "value": 41.03, "unit": "%"}, {"measurement": "Annexin V staining (apoptosis)", "setting": "[4]", "value": "strong staining of Annexin V"}, {"measurement": "Mice with palpable tumor / total mice", "setting": "[5]", "value": "2/6"}]}, {"smiles": "c1ccc(CSSSCc2ccccc2)cc1", "note": "[DBTS, Dibenzyl trisulfide]", "values": [{"measurement": "Mice with palpable tumor / total mice", "setting": "[2]; [7]", "value": "2/6††"}, {"measurement": "Tumor volume (cm^3)", "setting": "[2]; [7]", "value": 0.01, "unit": "cm^3"}, {"measurement": "Tumor volume (cm^3)", "setting": "[2]; 50 mg/kg iv x7 qd, 14 d", "value": "0.014 ± 0.01", "unit": "cm^3"}, {"measurement": "Tumor volume (cm^3)", "setting": "[2]; 50 mg/kg iv x7 qd, 21 d", "value": "0.079 ± 0.01", "unit": "cm^3"}, {"measurement": "Tumor volume (cm^3)", "setting": "[2]; 50 mg/kg iv x7 qd, 24 d (end), listed as ACEA100101", "value": "0.196 cm^3 and 0.196 ± 0.02 cm^3"}, {"measurement": "TV inhibition rate % T/C", "setting": "[2]; 50 mg/kg/d iv x7 qd", "value": 11.17, "unit": "%"}, {"measurement": "Tumor weight", "setting": "[2]; 50 mg/kg/d iv x7 qd", "value": "0.568 ± 0.07", "unit": "g"}, {"measurement": "Body weight of mice", "setting": "[2]; 50 mg/kg/d iv x7 qd, 0 day (beginning), listed as ACEA100101", "value": "18.0 g and 18 ± 1 g"}, {"measurement": "Body weight of mice", "setting": "[2]; 50 mg/kg/d iv x7 qd, 7 day", "value": "18.7 ± 0.8", "unit": "g"}, {"measurement": "Body weight of mice", "setting": "[2]; 50 mg/kg/d iv x7 qd, 14 d", "value": "20.3 ± 0.8", "unit": "g"}, {"measurement": "Body weight of mice", "setting": "[2]; 50 mg/kg/d iv x7 qd, 21 d", "value": "22 ± 0.6", "unit": "g"}, {"measurement": "Body weight of mice", "setting": "[2]; 50 mg/kg/d iv x7 qd, 24 d (end), listed as ACEA100101", "value": "22.8 g and 22.8 ± 1.6 g"}, {"measurement": "tumor inhibition rate %", "setting": "[2]; 50 mg/kg/d iv x7 qd", "value": 66.98, "unit": "%"}, {"measurement": "Effect on extent of microtubule assembly", "setting": "[1]; all doses (especially prominent at 9 uM)", "value": "inhibit the extent of microtubule assembly significantly"}]}]}
